Assay results published in patent US8557526B2, “Synaptotagmin and collapsin response mediator protein as biomarkers for traumatic brain injury” (University of Florida Research Foundation, Inc., priority 2007, dated 2013).

Assays:
primary cortical neurons [1] = test: LDH release assay of NMDA induced neuronal cell injury; format: cell-based, rat; details: for protection against NMDA induced neuronal cell injury (LDH release): time course, protection within 6 hours
Protocol: LDH release assays were performed to determine the role of calpain and caspase inhibition on NMDA induced neuronal cell injury, and to draw a link with CRMP2 degradation. The release of LDH, normally present in the cytoplasm of neurons, into the cell culture media can be used as a measure of dying cells.

calpain = target: T1, calpain (Rattus norvegicus, UniProt Q07009); test: In vitro calpain digestion of naïve brain lysate (CRMP2 immunoblot); format: biochemical; details: pretreatment of naïve lysate
T1 construct: purchased Calbiochem
T1 sequence (Q07009 20-700 limits assumed): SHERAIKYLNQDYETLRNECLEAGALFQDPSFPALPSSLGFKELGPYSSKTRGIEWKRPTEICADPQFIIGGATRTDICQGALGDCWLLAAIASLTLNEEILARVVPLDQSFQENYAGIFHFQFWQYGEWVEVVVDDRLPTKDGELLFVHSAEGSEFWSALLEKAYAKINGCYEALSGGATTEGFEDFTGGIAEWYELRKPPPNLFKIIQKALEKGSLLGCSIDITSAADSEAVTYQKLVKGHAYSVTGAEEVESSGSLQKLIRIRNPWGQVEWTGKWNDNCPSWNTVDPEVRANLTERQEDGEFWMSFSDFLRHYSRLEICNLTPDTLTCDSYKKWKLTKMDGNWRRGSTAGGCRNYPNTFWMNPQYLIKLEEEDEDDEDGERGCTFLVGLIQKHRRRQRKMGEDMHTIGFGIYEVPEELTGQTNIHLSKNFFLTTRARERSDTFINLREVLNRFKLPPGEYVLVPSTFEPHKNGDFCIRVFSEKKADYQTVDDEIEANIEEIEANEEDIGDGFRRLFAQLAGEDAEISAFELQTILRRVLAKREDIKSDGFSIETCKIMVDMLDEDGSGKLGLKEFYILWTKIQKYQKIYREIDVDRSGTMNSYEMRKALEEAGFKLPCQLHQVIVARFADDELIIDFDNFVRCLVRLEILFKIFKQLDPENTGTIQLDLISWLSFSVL
T1 sequence (Q64537 88-270 partner limits assumed): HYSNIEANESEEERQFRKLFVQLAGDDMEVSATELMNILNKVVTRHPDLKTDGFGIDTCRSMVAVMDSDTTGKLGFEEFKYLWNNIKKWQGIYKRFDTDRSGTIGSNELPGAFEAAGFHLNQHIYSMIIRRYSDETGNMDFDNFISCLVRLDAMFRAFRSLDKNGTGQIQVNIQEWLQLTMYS
Protocol: (§1) In vitro digestion of rat brain lysate (5 mg) was performed with the purified proteases human erythrocyte calpain-1, rat recombinant calpain-2 (Calbiochem, San Diego, Calif.) and recombinant human caspase-3 (Chemicon, Temecula, Calif.) in a buffer containing 100 mM Tris-HCl (pH 7.4) and 20 mM DTT. For calpain, 2 mM CaCl2 was also added, and then incubated at room temperature for 30 minutes. For caspase-3, samples were incubated at 37° C. for four hours. Protease reactions were stopped by the addition of calpain inhibitor SJA6017 to a concentration of 30 μM (Senju Pharmaceuticals, Kobe, Japan) or pan-caspase inhibitor Z-VAD to a concentration of 20 μM and a protease inhibitor cocktail solution.
(§2) This example was to determine whether CRMP2 proteolysis was calpain mediated following TBI, similar to the proteolysis found in cell culture after neurotoxin treatment. […] The complete inhibition of calpain and caspase activity was confirmed by parallel monitoring of calpain and caspase associated αII-spectrin degradation. […] Therefore, calpain produced the 55 kDa CRMP-2 BDP, while caspase-3 was ruled out.

primary cortical neurons [2] = test: CRMP immunoblot after neurotoxin treatment of primary cortical neurons, with or without protease inhibitors; format: cell-based, rat; details: for STS-mediated generation of the 55 kDa CRMP2 BDP (effect of inhibitor): STS 0.5 μM challenge, primary cortical neurons; for formation of the 55 kDa CRMP2 BDP after NMDA treatment (effect of inhibitor pretreatment): pretreatment of primary cortical culture; for integrity of intact CRMP2 / appearance of 55 kDa BDP after neurotoxin: NMDA 200 μM, MTX, STS 0.5 μM, EDTA 5 mM; for CRMP5 after neurotoxin / intact CRMP1 and CRMP4 after neurotoxin: NMDA 200 μM 6 hours, maitotoxin 3 nM 3 hours
Protocol: Primary cortical neurons from first post-natal day Sprague-Dawley rat brains were plated on poly-L-lysine coated culture plates (Erie Scientific, Portsmouth, N.H., U.S.A.). Cells were dissociated with trypsin and DNase I, re-suspended in 10% plasma-derived horse serum (PDHS) in Dulbecco's modified Eagle's medium (DMEM), and plated on poly-L-lysine treated 35 mm (density: 3.0×10^6 cells per well) plates. Cells were allowed to grow in an atmosphere of 10% CO2 at 37° C. for three days and then treated with 1 μM 4-amino-6-hydrazino-7-β-D-ribofuranosyl-7H-pyrrolo (2,3-d)-pyrimidine-5-carboxamide (ARC) for two days. The ARC was removed and fresh 10% PDHS was added in DMEM, after which the cells were grown for an additional 10-14 days.
Protein concentrations of cell or tissue lysates were determined via Bio-Rad DC Protein Assay (Bio-Rad, Hercules, Calif.). Protein balanced samples were prepared for sodium dodecyl sulfate-polyacrylamide gel electrophoresis (SDS-PAGE) in a two-fold loading buffer containing 0.25 M Tris (pH 6.8), 0.2 M DTT, 8% SDS, 0.02% bromophenol blue, and 20% glycerol in distilled water. Samples were heated for 90 seconds at 90° C. and centrifuged for 2 minutes. Twenty micrograms (20 μg) of protein per lane were routinely resolved by SDS-PAGE on Tris-glycine gels for 2 hours at 130V. Following electrophoresis, separated proteins were laterally transferred to polyvinylidene fluoride (PVDF) membranes in a transfer buffer containing 39 mM glycine and 48 mM Tris-HCl (pH 8.3) 5% methanol at a constant voltage of 20 V for 2 hours at ambient temperature in a semi-dry transfer unit (Bio-Rad) by the semi-dry method.
Rat CRMP5 antibody (targeting to residues 369-564, Chemicon, Temecula, Calif.) was dialyzed with PBS using Slide-A-Lyzer MINI Dialysis Units, (Pierce, 3.5MWCO, 69550, Rockford, Ill.). Then CRMP5 was biotinylated by using EZ-link, sulfo-NHS-LC-LC-biotin by following the manufacture's instructions. Membranes were blotted either with anti-CRMP-1, or -4 (targeting residues 499-511, Chemicon), biotinylated-anti-CRMP5 antibodies or anti-CRMP2 (C4G) or a C-terminal anti-CRMP2 antibody raised against a synthetic peptides of residues 551-559), and developed with biotin and avidin-conjugated alkaline phosphatase (this step was skipped in CRMP5 blotting) and nitroblue tetrazolium and 5-bromo-4-chloro-3-indolyl phosphate. Quantitative evaluation of protein levels was performed via computer-assisted densitometric scanning (NIH Image J V.1.6 software).

[3] = system: rat cerebrocortical cultures; test: Synaptotagmin-1 fragmentation and vesicle organization in neurotoxin-challenged neuronal cultures; format: cell-based; details: for fragmentation of 65 kDa synaptotagmin-1 protein (33-36 kDa N-terminal fragments): oncotic, apoptotic and excitotoxic challenge; for organization of synaptotagmin-coupled vesicles: cerebrocortical neurons and cerebellar granule neurons
Protocol: Cerebrocortical cells harvested from 1-day old Sprague-Dawley rat brains were plated on poly-L-lysine coated on 6-well culture plates (Erie Scientific, Portsmouth, N.H., USA) at a density of 4.36×10^5 cells/mL. Cultures were maintained in Dulbecco's modified Eagle's medium (DMEM) with 10% fetal bovine serum in a humidified incubator in an atmosphere of 10% CO2 at 37° C. After 5 days in culture, the media were changed to DMEM with 5% horse serum. Subsequent media changes were performed three times a week. Experiments were performed on days 10 to 11 in vitro when astroglia had formed a confluent monolayer beneath morphologically mature neurons.
Cerebrocortical cultures (12-day-old) from above were washed three times with serum-free MEM.
After electrotransfer, blotting membranes were blocked for 1 hour at ambient temperature in 5% non-fat milk in TBS and 0.05% […] (TBST), then incubated in primary monoclonal synaptotagmin-1 antibody (BD Cat# 610434) in TBST with 5% milk at 1/50 dilution as recommended by the manufacturer at 4° C. overnight, followed by three washes with TBST and a 2 hour incubation at ambient temperature with a secondary antibody linked to biotinylated secondary antibody (Amersham, Cat # RPN1177v1) followed by a 30 min incubation with strepavidin-conjugated alkaline phosphatase (calorimetric method). Colorimetric development was performed with a one-step BCIP NBT reagent (KPL, Cat # 50-81-08). Molecular weights of intact synaptotagmin-1 protein and their potential breakdown products (BDPs) were assessed by running along side rainbow colored molecular weight standards (Amersham, Cat # RPN800V).

[4] = target: T2, recombinant human caspase-3 (Homo sapiens, UniProt P42574); test: In vitro caspase-3 digestion of naïve brain lysate (CRMP2 immunoblot); format: biochemical
T2 construct: purchased Chemicon
T2 sequence (P42574 29-175 limits assumed): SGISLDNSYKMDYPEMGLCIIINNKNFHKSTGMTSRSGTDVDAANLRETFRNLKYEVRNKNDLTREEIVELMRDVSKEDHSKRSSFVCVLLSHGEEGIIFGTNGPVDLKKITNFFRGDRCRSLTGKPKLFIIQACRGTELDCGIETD
T2 sequence (P42574 176-277 limits assumed): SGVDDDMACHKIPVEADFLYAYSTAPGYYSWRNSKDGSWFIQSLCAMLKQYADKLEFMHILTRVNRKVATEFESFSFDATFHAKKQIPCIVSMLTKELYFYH
Protocol: as §1, §2

Question: How did the “protection against NMDA induced neuronal cell injury (LDH release)” value (primary cortical neurons [1]; NMDA treatment) turn out when `CC(C)C[C@@H](C=O)NC(=O)[C@@H](NS(=O)(=O)c1ccc(F)cc1)C(C)C` [SJA6017] was run?
Answer: significant protection within 6 hours

Question: What about the “protection of neurons from excitotoxic injury after 12 hours” value (primary cortical neurons [1]; preincubation with inhibitor, after 12 hours) of the same compound?
Answer: did not effectively protect

Question: And the “formation of the 55 kDa CRMP-2 BDP by calpain in naïve brain lysate (effect of inhibitor)” value (calpain)?
Answer: blocked formation of the 55 kDa CRMP-2 BDP

Question: And the “STS-mediated generation of the 55 kDa CRMP2 BDP (effect of inhibitor)” value (primary cortical neurons [2])?
Answer: effectively blocked

Question: What about the “formation of the 55 kDa CRMP2 BDP after NMDA treatment (effect of inhibitor pretreatment)” value (primary cortical neurons [2]) of the same compound?
Answer: prevented the formation of the 55 kDa CRMP2 BDP

Question: With `CN[C@@H]1C[C@H]2O[C@@](C)([C@@H]1OC)n1c3ccccc3c3c4c(c5c6ccccc6n2c5c31)C(=O)NC4` [STS, staurosporine] as the compound, how does the “fragmentation of 65 kDa synaptotagmin-1 protein (33-36 kDa N-terminal fragments)” value [3] read?
Answer: fragmented by calpain into N-terminal fragments

Question: And the “integrity of intact CRMP2 / appearance of 55 kDa BDP after neurotoxin” value (primary cortical neurons [2])?
Answer: rapidly degraded to the 55 kDa BDP

Question: How did the “organization of synaptotagmin-coupled vesicles” value [3] turn out when `C=CC[C@H](C)[C@H](C)C[C@@H](O)[C@H](O)[C@@H]1CC[C@@]2(C)O[C@@]3(C)C[C@@]4(C)O[C@H]5/C=C\C[C@H]6O[C@H]7C[C@H]8O[C@H]9C[C@@]%10(C)O[C@@](C)([C@@H]%11CC[C@H]%12O[C@@]%13(C)C[C@H]%14O[C@@]%15(C)C[C@H]%16O[C@@]%17(C)C[C@@H](O)[C@H]([C@@H]%18O[C@H]%19[C@H](O)[C@@H](O)[C@H](C[C@H](O)C[C@@H](O)[C@@H]%20O[C@H]%21[C@H](O)[C@@H](O)[C@H]([C@@H]%22O[C@@H]%23[C@H](O)[C@H]%24O[C@H]%25C[C@H]%26O[C@@H](C[C@H](O)[C@@H](O)[C@H]%27O[C@H]%28[C@H](O)[C@H]%29O[C@H]%30C[C@H]%31O[C@H]%32[C@@H](O)[C@@H](O)[C@H]([C@H](C)[C@H](O)[C@H](C)CC[C@H](OS(=O)(=O)O)[C@H](O)[C@H](C)C[C@@H](O)C(=C)/C(C)=C/CO)O[C@@H]%32[C@H](O)C[C@]%31(C)O[C@@H]%30C[C@]%29(C)O[C@@H]%28C[C@H]%27O)[C@H](OS(=O)(=O)O)[C@H](O)[C@@H]%26O[C@@H]%25C[C@@H]%24O[C@H]%23[C@H](O)[C@H]%22O)O[C@H]%21C[C@H]%20O)O[C@H]%19C[C@H]%18O)O[C@@H]%17[C@H](O)[C@]%16(C)O[C@@H]%15CC[C@]%14(C)O[C@@H]%13C[C@@H]%12O%11)[C@H](O)C[C@@H]%10O[C@]9(C)CC[C@]8(C)O[C@]7(C)C[C@@H]6O[C@@H]5C[C@@H]4O[C@@H]3C[C@@H]2O1` [MTX, maitotoxin] was run?
Answer: extensive disorganization

Question: What about the “fragmentation of 65 kDa synaptotagmin-1 protein (33-36 kDa N-terminal fragments)” value [3] of the same compound?
Answer: fragmented by calpain into N-terminal fragments

Question: What about the CRMP5 after neurotoxin (primary cortical neurons [2]) of the same compound?
Answer: no remarkable change

Question: And the “intact CRMP1 and CRMP4 after neurotoxin” value (primary cortical neurons [2])?
Answer: Decrease of CRMP1 and CRMP4

Question: For Z-VAD, which “protection against NMDA induced neuronal cell injury (LDH release)” value (primary cortical neurons [1]; NMDA treatment) is on record?
Answer: no protection

Question: And the “66 kDa intact CRMP2 band after caspase-3 treatment with inhibitor” value [4]?
Answer: did completely disappear

Question: And the “STS-mediated generation of the 55 kDa CRMP2 BDP (effect of inhibitor)” value (primary cortical neurons [2])?
Answer: offered no protection

Question: What about the “formation of the 55 kDa CRMP2 BDP after NMDA treatment (effect of inhibitor pretreatment)” value (primary cortical neurons [2]) of the same compound?
Answer: not

Question: What does the source list for `CN[C@H](CC(=O)O)C(=O)O` [NMDA, N-Methyl-D-Asparate]?
Answer: organization of synaptotagmin-coupled vesicles [3]: extensive disorganization; fragmentation of 65 kDa synaptotagmin-1 protein (33-36 kDa N-terminal fragments) [3]: fragmented by calpain into N-terminal fragments; neuron death (LDH release) (primary cortical neurons [1]; NMDA treatment, peaking at 24 hours): induced significant neuron death after a 3 hour induction; CRMP5 after neurotoxin (primary cortical neurons [2]): no remarkable change; intact CRMP1 and CRMP4 after neurotoxin (primary cortical neurons [2]): Decrease of CRMP1 and CRMP4; time of appearance of the 55 kDa CRMP2 BDP (primary cortical neurons [2]; NMDA 200 μM time course): ≤ 3 h; integrity of intact CRMP2 / appearance of 55 kDa BDP after neurotoxin (primary cortical neurons [2]): marked reduction
